Assay results reported in patent publication US5990113A, “Monohydrates of aminobenzenesulfonic acid derivatives and method for preparing thereof” (priority 1995, dated 1999).
“Also recorded” adds a separate entry of the source. Like-named read-outs stand apart in the source and are kept apart here.

Columns and labels:
[1] = rat, in vivo
Description: Using these values of AUC(0-.infin.) and the doses applied, the bioavailability was calculated according to the following Equation 1. [formula]

[2] = Serum concentration (2): serum radioactivity after oral administration at several doses; settings: male rats, Mean ± S.D (n = 5)
[3] = Hygroscopic property: weight change on storage in a desiccator; assay type: physicochemical; settings: 20° C.
Description: Each of the samples of the monohydrate of the present invention was put in a desiccator adjusted at a relative humidity of 57% or 98%, and then stored at 20° C. for 16 days. Weight changes during the period of time were measured. As controls, the anhydrous crystals obtained in the above process (a) in Example 1 were also stored in a desiccator adjusted at a relative humidity of 57% or 98%, and weight changes were measured. The results are shown in Table 2 [in the table, each of the values (%) represents a weight increase]. […] On the other hand, as for the anhydrous crystal, the weight increase of about 7% was observed, which corresponded to about 1 mole of the water of crystal.

[4] = Thermal analysis (TG-DTA); assay type: physicochemical; settings: dry nitrogen, 5° C./min
Description: The anhydrous crystal described in Example 1 of the Japanese Patent Unexamined Publication (KOKAI) No.(Hei)3-7263/1991 and the monohydrate of the present invention were subjected to thermal analysis by a thermal analyzer (RIGAKU TAS-200) under dry nitrogen atmosphere using each of 10 mg of samples. The measurements were carried out in the temperature range of from 50 to 400° C. applying the temperature raising rate of 5° C./min. As the anhydrous crystals, those obtained in the above process (a) was used.

[5] = rat, in vivo; remark: listed apart in the source
[6] = Stability and release of water of crystal of the monohydrate; assay type: physicochemical; settings: for stability (in words): long period / room temperature / once formed, monohydrate
[7] = Weight and appearance on further drying; assay type: physicochemical; settings: further 27 hours, 50° C., 90 mmHg
Description: The anhydrous crystal of 5-Methyl-2-(1-piperazinyl) benzenesulfonic acid (10.00 g) and distilled water (30 ml) were added in a 100 ml round-bottomed flask and the mixture was stirred at 5° C. for 2 hours. The crystals were collected from the suspension by suction filtration and the crystals remained in the round-bottomed flask were recovered by washing with distilled water (3 ml). The crystals were combined and dried at 50° C. and 90 mmHg for 3 hours to give 5-methyl-2-(1-piperazinyl)benzenesulfonic acid monohydrate as white crystals (10.36 g, yield: 96.8%). After drying was further continued for 27 hours under the same conditions, the weight and appearance of the monohydrate were not changed. Water content measured by a Karl Fischer water content meter was 6.96%, which further verified that the product was the monohydrate (calculated content: 6.56%).
The anhydrous crystal of 5-Methyl-2-(1-piperazinyl) benzenesulfonic acid (10.00 g) and distilled water (75 ml) were charged in a 200 ml round-bottomed flask and the crystals were thoroughly dissolved by heating under reflux with stirring. The solution was then cooled to 5° C. with stirring and stirring was further continued for 2 hours at the same temperature. […] Water content measured by a Karl Fischer water content meter was 6.75%, which further verified that the product was the monohydrate. […]

cardiac muscle cells = settings: cited from earlier work

Cc1ccc(N2CCNCC2)c(S(=O)(=O)O)c1 [labeled compound, labeled 2-(1-piperazinyl)-5-methylbenzenesulfonic acid monohydrate]
AUC(0-.infin.) ([1]; iv, 0.3 mg/kg): 816.28 ng eq·h/ml | AUC(0-.infin.) ([1]; po, 1 mg/kg): 1039.86 ng eq·h/ml | AUC ([2]; oral 0.1 mg/kg): 64.1 ± 12.3 ng·h/mL | C max ([2]; oral 0.1 mg/kg): 16.2 ± 2.6 ng/mL | T max ([2]; oral 0.1 mg/kg): 2.2 ± 0.5 h | t 1/2 ([2]; oral 0.1 mg/kg): 1.77 ± 0.34 h | AUC ([2]; oral 0.3 mg/kg): 270.5 ± 88.4 ng·h/mL | C max ([2]; oral 0.3 mg/kg): 69.0 ± 17.8 ng/mL | T max ([2]; oral 0.3 mg/kg): 2.2 ± 0.5 h | t 1/2 ([2]; oral 0.3 mg/kg): 1.33 ± 0.09 h | AUC ([2]; oral 1 mg/kg): 574.4 ± 113.2 ng·h/mL | C max ([2]; oral 1 mg/kg): 171.6 ± 31.1 ng/mL | T max ([2]; oral 1 mg/kg): 1.8 ± 0.5 h | t 1/2 ([2]; oral 1 mg/kg): 1.64 ± 0.17 h | AUC ([2]; oral 3 mg/kg): 1769.2 ± 498.4 ng·h/mL | C max ([2]; oral 3 mg/kg): 501.5 ± 133.8 ng/mL | T max ([2]; oral 3 mg/kg): 2.0 ± 0.0 h | t 1/2 ([2]; oral 3 mg/kg): 1.30 ± 0.08 h

Cc1ccc(N2CCNCC2)c(S(=O)(=O)O)c1 [Anhydrous crystal, 2-(1-piperazinyl)-5-methylbenzenesulfonic acid, reference compound]
bioavailability, maximum value of fluctuation ([1]; po, 0.94 mg/kg): 43.72% | bioavailability, minimum value of fluctuation ([1]; po, 0.94 mg/kg): 33.03% | weight increase, 0 day ([3]; 57% RH): 0.00% | weight increase, 1 day ([3]; 57% RH): 6.99% | weight increase, 3 days ([3]; 57% RH): 7.08% | weight increase, 16 days ([3]; 57% RH): 6.89% | weight increase ([3]; 57% and 98% RH, 16 days, about 1 mole of water of crystal): about 7% | weight increase, 0 day ([3]; 98% RH): 0.00% | weight increase, 1 day ([3]; 98% RH): 7.35% | weight increase, 3 days ([3]; 98% RH): 7.36% | weight increase, 16 days ([3]; 98% RH): 7.12% | weight loss or thermal absorption peak due to release of the water of crystal (in words) ([4]; below 100° C.): no weight loss or no thermal absorption peak

Cc1ccc(N2CCNCC2)c(S(=O)(=O)O)c1.O [Monohydrate, 5-methyl-2-(1-piperazinyl)benzenesulfonic acid monohydrate]
bioavailability ([1]; po, 1 mg/kg): 38% | weight increase, 0 day ([3]; 57% RH): 0.00% | weight increase, 1 day ([3]; 57% RH): 0.11% | weight increase, 3 days ([3]; 57% RH): 0.20% | weight increase, 16 days ([3]; 57% RH): 0.21% | weight change (in words) ([3]; 57% and 98% RH, 16 days): No substantial weight change | weight increase, 0 day ([3]; 98% RH): 0.00% | weight increase, 1 day ([3]; 98% RH): 0.28% | weight increase, 3 days ([3]; 98% RH): 0.40% | weight increase, 16 days ([3]; 98% RH): 0.39% | serum concentration versus dose (in words) [5]: linear direct proportion to the dose of administration | heating temperature at which water of crystal is gradually released ([6]; ambient or reduced pressure): ≥ 60 °C | stability (in words) ([6]; listed as monohydrate of 2-(1-piperazinyl)-5-methylbenzenesulfonic acid): stable at room temperature for a long period of time | stability (in words) [6]: stable and free from weight variation by hygroscopicity; also recorded: stable for a long period of time | temperature from which weight loss and thermal absorption peak due to release of the water of crystal were observed [4]: around 60 °C | weight loss due to release of the water of crystal ([4]; 50 to 400° C.): 6.57% | weight and appearance after further drying [7]: not changed

Cc1ccc(N2CCNCC2)c(S(=O)(=O)O)c1 [Compound 2, 2-(1-piperazinyl)-5-methylbenzenesulfonic acid]
inhibition of the inflow of calcium ions into cardiac muscle cells (in words) (cardiac muscle cells): remarkably inhibits
